Source: ChEMBL document CHEMBL6078713, “Synthesis and mechanistic studies of 4-aminoquinoline-Isatin molecular hybrids and Schiff's bases as promising antimicrobial agents” (Eur J Med Chem, 2025)
Values after ≈ are worked out from the molar mass of the structure shown. Active and inactive are the calls of the source. The calls are words filed in the database; no cut-off is given here.

Tests used:
Escherichia coli [1] = test: Antibacterial activity against Escherichia coli MTCC 443 assessed as diameter of zone of inhibition at 500 ug/ml by agar disk diffusion method; format: functional; details: read-out: DIZ
Enterococcus faecalis [2] = test: Antibacterial activity against Enterococcus faecalis MTCC 439 assessed as diameter of zone of inhibition at 500 ug/ml by agar disk diffusion method; format: functional; details: read-out: DIZ
Staphylococcus aureus [3] = test: Antibacterial activity against Staphylococcus aureus MTCC 902 assessed as diameter of zone of inhibition at 500 ug/ml by agar disk diffusion method; format: functional; details: read-out: DIZ
Pseudomonas aeruginosa [4] = test: Antibacterial activity against Pseudomonas aeruginosa MTCC 2453 assessed as diameter of zone of inhibition at 500 ug/ml by agar disk diffusion method; format: functional; details: read-out: DIZ
Escherichia coli [5] = test: Antibacterial activity against Escherichia coli MTCC 443 assessed as inhibition of bacterial growth incubated overnight by serial dilution based spectrophotometer; format: functional
Enterococcus faecalis [6] = test: Antibacterial activity against Enterococcus faecalis MTCC 439 assessed as inhibition of bacterial growth incubated overnight by serial dilution based spectrophotometer; format: functional
Bacillus subtilis [7] = test: Antibacterial activity against Bacillus subtilis MTCC 736 assessed as inhibition of bacterial growth incubated overnight by serial dilution based spectrophotometer; format: functional
Staphylococcus aureus [8] = test: Antibacterial activity against Staphylococcus aureus MTCC 902 assessed as inhibition of bacterial growth incubated overnight by serial dilution based spectrophotometer; format: functional
Pseudomonas aeruginosa [9] = test: Antibacterial activity against Pseudomonas aeruginosa MTCC 2453 assessed as inhibition of bacterial growth incubated overnight by serial dilution based spectrophotometer; format: functional
Salmonella typhi [10] = test: Antibacterial activity against Salmonella typhi assessed as inhibition of bacterial growth incubated overnight by serial dilution based spectrophotometer; format: functional, Salmonella enterica subsp. enterica serovar Typhi; details: Salmonella enterica
Escherichia coli [11] = test: Bactericidal activity against Escherichia coli MTCC 443 assessed as inhibition of bacterial growth incubated overnight; format: functional
Enterococcus faecalis [12] = test: Bactericidal activity against Enterococcus faecalis MTCC 439 assessed as inhibition of bacterial growth incubated overnight; format: functional
Staphylococcus aureus [13] = test: Bactericidal activity against Staphylococcus aureus MTCC 902 assessed as inhibition of bacterial growth incubated overnight; format: functional
Pseudomonas aeruginosa [14] = test: Bactericidal activity against Pseudomonas aeruginosa MTCC 2453 assessed as inhibition of bacterial growth incubated overnight; format: functional
Enterococcus faecalis [15] = test: Ratio of MBC for antibacterial activity against Enterococcus faecalis MTCC 439 to MIC for bactericidal activity against Enterococcus faecalis MTCC 439; format: functional
Staphylococcus aureus [16] = test: Ratio of MBC for antibacterial activity against Staphylococcus aureus MTCC 902 to MIC for bactericidal activity against Staphylococcus aureus MTCC 902; format: functional
Pseudomonas aeruginosa [17] = test: Ratio of MBC for antibacterial activity against Pseudomonas aeruginosa MTCC 2453 to MIC for bactericidal activity against Pseudomonas aeruginosa MTCC 2453; format: functional
Escherichia coli [18] = test: Antibacterial activity against Escherichia coli MTCC 443 assessed as diameter of zone of inhibition at 0.5 times MIC incubated overnight by disk diffusion method; format: functional
Enterococcus faecalis [19] = test: Antibacterial activity against Enterococcus faecalis MTCC 439 assessed as diameter of zone of inhibition at 0.5 times MIC incubated overnight by disk diffusion method; format: functional
Staphylococcus aureus [20] = test: Antibacterial activity against Staphylococcus aureus MTCC 902 assessed as diameter of zone of inhibition at 0.5 times MIC incubated overnight by disk diffusion method; format: functional
Pseudomonas aeruginosa [21] = test: Antibacterial activity against Pseudomonas aeruginosa MTCC 2453 assessed as diameter of zone of inhibition at 0.5 times MIC incubated overnight by disk diffusion method; format: functional
Salmonella typhi [22] = test: Antibacterial activity against Salmonella typhi assessed as diameter of zone of inhibition at 0.5 times MIC incubated overnight by disk diffusion method; format: functional, Salmonella enterica subsp. enterica serovar Typhi
Escherichia coli [23] = test: Antibacterial activity against Escherichia coli MTCC 443 assessed as diameter of zone of inhibition at MIC incubated overnight by disk diffusion method; format: functional
Enterococcus faecalis [24] = test: Antibacterial activity against Enterococcus faecalis MTCC 439 assessed as diameter of zone of inhibition at MIC incubated overnight by disk diffusion method; format: functional
Bacillus subtilis [25] = test: Antibacterial activity against Bacillus subtilis MTCC 736 assessed as diameter of zone of inhibition at MIC incubated overnight by disk diffusion method; format: functional
Staphylococcus aureus [26] = test: Antibacterial activity against Staphylococcus aureus MTCC 902 assessed as diameter of zone of inhibition at MIC incubated overnight by disk diffusion method; format: functional
Pseudomonas aeruginosa [27] = test: Antibacterial activity against Pseudomonas aeruginosa MTCC 2453 assessed as diameter of zone of inhibition at MIC incubated overnight by disk diffusion method; format: functional
Salmonella typhi [28] = test: Antibacterial activity against Salmonella typhi assessed as diameter of zone of inhibition at MIC incubated overnight by disk diffusion method; format: functional, Salmonella enterica subsp. enterica serovar Typhi
Escherichia coli [29] = test: Antibacterial activity against Escherichia coli MTCC 443 assessed as diameter of zone of inhibition at 2 times MIC incubated overnight by disk diffusion method; format: functional
Enterococcus faecalis [30] = test: Antibacterial activity against Enterococcus faecalis MTCC 439 assessed as diameter of zone of inhibition at 2 times MIC incubated overnight by disk diffusion method; format: functional
Bacillus subtilis [31] = test: Antibacterial activity against Bacillus subtilis MTCC 736 assessed as diameter of zone of inhibition at 2 times MIC incubated overnight by disk diffusion method; format: functional
Staphylococcus aureus [32] = test: Antibacterial activity against Staphylococcus aureus MTCC 902 assessed as diameter of zone of inhibition at 2 times MIC incubated overnight by disk diffusion method; format: functional
Pseudomonas aeruginosa [33] = test: Antibacterial activity against Pseudomonas aeruginosa MTCC 2453 assessed as diameter of zone of inhibition at 2 times MIC incubated overnight by disk diffusion method; format: functional
Salmonella typhi [34] = test: Antibacterial activity against Salmonella typhi assessed as diameter of zone of inhibition at 2 times MIC incubated overnight by disk diffusion method; format: functional, Salmonella enterica subsp. enterica serovar Typhi
Escherichia coli [35] = test: Synergistic antibacterial activity against Escherichia coli MTCC 443 assessed as inhibition of bacterial growth incubated overnight in presence of ciprofloxacin by serial dilution based spectrophotometer; format: functional
Enterococcus faecalis [36] = test: Synergistic antibacterial activity against Enterococcus faecalis MTCC 439 assessed as inhibition of bacterial growth incubated overnight in presence of ciprofloxacin by serial dilution based spectrophotometer; format: functional
Staphylococcus aureus [37] = test: Synergistic antibacterial activity against Staphylococcus aureus MTCC 902 assessed as inhibition of bacterial growth incubated overnight in presence of ciprofloxacin by serial dilution based spectrophotometer; format: functional
Pseudomonas aeruginosa [38] = test: Synergistic antibacterial activity against Pseudomonas aeruginosa MTCC 2453 assessed as inhibition of bacterial growth incubated overnight in presence of ciprofloxacin by serial dilution based spectrophotometer; format: functional
Escherichia coli [39] = test: Synergistic antibacterial activity against Escherichia coli MTCC 443 assessed as fractional inhibitory concentration index incubated overnight in presence of ciprofloxacin by microdilution checkerboard assay; format: functional
Enterococcus faecalis [40] = test: Synergistic antibacterial activity against Enterococcus faecalis MTCC 439 assessed as fractional inhibitory concentration index incubated overnight in presence of ciprofloxacin by microdilution checkerboard assay; format: functional
Staphylococcus aureus [41] = test: Synergistic antibacterial activity against Staphylococcus aureus MTCC 902 assessed as fractional inhibitory concentration index incubated overnight in presence of ciprofloxacin by microdilution checkerboard assay; format: functional
Pseudomonas aeruginosa [42] = test: Synergistic antibacterial activity against Pseudomonas aeruginosa MTCC 2453 assessed as fractional inhibitory concentration index incubated overnight in presence of ciprofloxacin by microdilution checkerboard assay; format: functional
Pseudomonas aeruginosa [43] = test: Antibacterial activity against Pseudomonas aeruginosa MTCC 2453 assessed as inhibition of bacterial growth incubated overnight by spectrophotometry relative to control; format: functional
Enterococcus faecalis [44] = test: Antibacterial activity against Enterococcus faecalis MTCC 439 assessed as inhibition of bacterial growth incubated overnight by spectrophotometry relative to control; format: functional
Bacillus subtilis [45] = test: Antibacterial activity against Bacillus subtilis MTCC 736 assessed as inhibition of bacterial growth incubated overnight by spectrophotometry relative to control; format: functional
Staphylococcus aureus [46] = test: Antibacterial activity against Staphylococcus aureus MTCC 902 assessed as inhibition of bacterial growth incubated overnight by spectrophotometry relative to control; format: functional
Staphylococcus aureus [47] = test: Bacteriostatic activity against Staphylococcus aureus MTCC 902 assessed as reduction in bacterial growth at 2 times MIC measured upto 24 hrs by absorbance based assay; format: functional, organism-based
Escherichia coli [48] = test: Bacteriostatic activity against Escherichia coli MTCC 443 assessed as reduction in bacterial growth at 2 times MIC measured upto 10 hrs by absorbance based assay; format: functional, organism-based
Staphylococcus aureus [49] = test: Bacteriostatic activity against Staphylococcus aureus MTCC 902 assessed as reduction in bacterial growth at 2 times MIC measured upto 10 hrs by absorbance based assay; format: functional, organism-based
Escherichia coli [50] = test: Bacteriostatic activity against Escherichia coli MTCC 443 assessed as reduction in log phase of bacterial growth at 0.5 to 1 times MIC measured upto 24 hrs by absorbance based assay; format: functional, organism-based
Staphylococcus aureus [51] = test: Bacteriostatic activity against Staphylococcus aureus MTCC 902 assessed as reduction in bacterial growth at 0.5 to 1 times MIC measured upto 24 hrs by absorbance based assay; format: functional, organism-based

O=C1Nc2ccc(Cl)cc2/C1=N/CCNc1ccnc2cc(Cl)ccc12
zone of inhibition at 500 µg/mL (Escherichia coli [1]): 11 mm
zone of inhibition at 500 µg/mL (Enterococcus faecalis [2]): 8 mm
zone of inhibition at 500 µg/mL (Staphylococcus aureus [3]): 10 mm
zone of inhibition at 500 µg/mL (Pseudomonas aeruginosa [4]): 12 mm
MIC (Escherichia coli [5]): 256 µg/mL (≈ 664 µM)
MIC (Enterococcus faecalis [6]): 512 µg/mL (≈ 1330 µM)
MIC (Bacillus subtilis [7]): > 512 µg/mL
MIC (Staphylococcus aureus [8]): 256 µg/mL (≈ 664 µM)
MIC (Pseudomonas aeruginosa [9]): 128 µg/mL (≈ 332 µM)
MIC (Salmonella typhi [10]): > 512 µg/mL
MBC (Escherichia coli [11]): > 512 µg/mL
MBC (Enterococcus faecalis [12]): 512 µg/mL (≈ 1330 µM)
MBC (Staphylococcus aureus [13]): 256 µg/mL (≈ 664 µM)
MBC (Pseudomonas aeruginosa [14]): 128 µg/mL (≈ 332 µM)
Ratio (Enterococcus faecalis [15]): 1
Ratio (Staphylococcus aureus [16]): 1
Ratio (Pseudomonas aeruginosa [17]): 1
diameter of the inhibition zone (DIZ) (Escherichia coli [18]): 11 mm
diameter of the inhibition zone (DIZ) (Enterococcus faecalis [19]): 12 mm
diameter of the inhibition zone (DIZ) (Staphylococcus aureus [20]): 13 mm
diameter of the inhibition zone (DIZ) (Pseudomonas aeruginosa [21]): 13 mm
diameter of the inhibition zone (DIZ) (Salmonella typhi [22]): 13 mm
diameter of the inhibition zone (DIZ) (Escherichia coli [23]): 12 mm
diameter of the inhibition zone (DIZ) (Enterococcus faecalis [24]): 17 mm
diameter of the inhibition zone (DIZ) (Bacillus subtilis [25]): 6 mm
diameter of the inhibition zone (DIZ) (Staphylococcus aureus [26]): 15 mm
diameter of the inhibition zone (DIZ) (Pseudomonas aeruginosa [27]): 18 mm
diameter of the inhibition zone (DIZ) (Salmonella typhi [28]): 10 mm
diameter of the inhibition zone (DIZ) (Escherichia coli [29]): 11 mm
diameter of the inhibition zone (DIZ) (Enterococcus faecalis [30]): 19 mm
diameter of the inhibition zone (DIZ) (Bacillus subtilis [31]): 8 mm
diameter of the inhibition zone (DIZ) (Staphylococcus aureus [32]): 16 mm
diameter of the inhibition zone (DIZ) (Pseudomonas aeruginosa [33]): 20 mm
diameter of the inhibition zone (DIZ) (Salmonella typhi [34]): 11 mm
MIC (Escherichia coli [35]): 32 µg/mL
MIC (Enterococcus faecalis [36]): 64 µg/mL
MIC (Staphylococcus aureus [37]): 64 µg/mL
MIC (Pseudomonas aeruginosa [38]): 8 µg/mL
fractional inhibitory concentration index (FICI) (Escherichia coli [39]): 0.249
fractional inhibitory concentration index (FICI) (Enterococcus faecalis [40]): 1.125
fractional inhibitory concentration index (FICI) (Staphylococcus aureus [41]): 1.25
fractional inhibitory concentration index (FICI) (Pseudomonas aeruginosa [42]): 1.062
inhibition (INH) (Pseudomonas aeruginosa [43]): >80%
inhibition (INH) (Enterococcus faecalis [44]): >80%
inhibition (INH) (Bacillus subtilis [45]): >80%
inhibition (INH) (Staphylococcus aureus [46]): >80%
Activity (Staphylococcus aureus [47]): inactive
Activity (Escherichia coli [48]): Active
Activity (Staphylococcus aureus [49]): Active
Activity (Escherichia coli [50]): Active
Activity (Staphylococcus aureus [51]): inactive
